Source: a melting point compilation (Tetko et al.; mined from patent text by program, amines drawn as free bases though some values may be those of a salt)

SMILES | melting point [°C]
CCc1nc(Cl)cc(NC)n1 | 80 to 81
O=c1ncc(Cl)cn1COCc1cnsn1 | 106
Cc1cc(Nc2nccc(-c3sc(CO)nc3C)n2)ccc1N1CCCCC1 | 142 to 144
O=C1c2c(-c3ccccc3F)noc2CCC1CCCN1CCN(c2ncccn2)CC1 (stereo not given) | 115 to 117
CCC(C)(Oc1ccc(OCc2cc(-c3ccc(OCc4ccccc4)cc3)no2)cc1)C(=O)O (stereo not given) | 132 to 134
CCCCCCCCC1=C(Cl)C(=O)c2ccccc2C1=O | 69 to 70
CC(C)c1nc(C(C)C)c(CN2CCN(c3ccccc3)CC2)c(-c2ccc(F)cc2)c1CO | 111 to 113
NC1CCN(c2ccc([N+](=O)[O-])cn2)CC1 | 115 to 117
C[C@@H](c1ccc(F)cc1)N1CCN(c2cc(Oc3cc(F)cc4[nH]c(=O)c(N)nc34)ncn2)CC1 | 288
CCOC(=O)C(C)Oc1ccc(-c2nc(-c3ccc(OC(C)C(=O)OCC)cc3O)nc(-c3ccc(OC(C)C(=O)OCC)cc3O)n2)c(O)c1 (stereo not given) | 115 to 120
Nc1ccc(NC(=S)NC2CCCCC2)cn1 | 147 to 149
COc1ccc2c(c1)CCC1C2CCC2(C)C(NC(c3ccccc3)c3ccccc3)CCC12 (stereo not given) | 127 to 129
O=C(O)CNCCOc1cccc(CCNS(=O)(=O)c2ccc(Cl)cc2)c1 | 205 to 207
CCSc1ccccc1N1CCN([C@@H]2Cc3c(OC)ccc(OC)c3C[C@H]2O)CC1 (relative stereo) | 171 to 173
COc1ccc2c(ccc3c4cc5c(cc4nnc23)OCO5)c1 | 258 to 260
COc1cc(-c2ccc(N)nn2)ccc1OC(F)F | 184
Cc1c(NC(=O)c2ccc(OC[C@@H]3CCCO3)cc2)ccc2cc(CNC3CCOCC3)cnc12 | 158 to 159
CC(C)(C)c1cc(-c2nc(O)ns2)cc(C(C)(C)C)c1O | 230 to 232
COc1ncccc1Nc1c(NC(NC(=O)c2cccc(Cl)c2)C(C)(C)C)c(=O)c1=O (stereo not given) | 208 to 210
Cc1nc2ccccn2c(=O)c1CCN1CCC(c2noc3cc(F)ccc23)CC1 | 170
O=C(Nc1cccnc1)c1cc2ccnc(Cl)c2[nH]1 | > 320
CCOC(=O)C1=C(C)NC(C)=C(C(=O)OCCN2CCN(C(c3ccccc3)c3ccccc3)CC2)C1c1cccc(Cl)c1 (stereo not given) | 72 to 75
CCOC(=O)CON(CC)C(=S)Nc1ccc(Cl)cc1C | 69 to 71
Cc1ccc(S(=O)(=O)Oc2ccc(C(C)(C)C)cc2C(C)(C)C)cc1 | 81
NCC1Cc2cc(C(F)(F)F)cc(-c3cccc(Cl)c3Cl)c2O1 (stereo not given) | 152 to 155

SMILES | melting point [°C]
COC(=O)c1sc2c(c1N)c1ccccc1c(=O)n2-c1ccccc1C | 236 to 237
CCCCNC(=O)NCCCn1c(CCOC)nc2c(N)nc3ccccc3c21 | 159 to 160
O=c1[nH]c2cc3ccccc3cc2[nH]c1=O | > 250
NS(=O)(=O)c1ccc(-c2c(-c3ccccc3)noc2CC(=O)O)cc1 | 61
CS(=O)(=O)c1ccc(C(=O)Nc2ccc(-n3nc(C(F)(F)F)cc3C(F)(F)F)cc2)cc1 | 216 to 218
CN(C)C=Cc1c(N)cc([N+](=O)[O-])cc1[N+](=O)[O-] | 105 to 107
CN1CCc2nc3ccc(Cl)cc3c(Nc3ccccc3)c2C1 | 137 to 139
COC(=O)C1COc2c(C(=O)c3ccccc3)cc(C)cc21 (stereo not given) | 110 to 111
Nc1nc2c(ncn2CCC(CO)COC(=O)c2ccccc2)c(=O)[nH]1 (stereo not given) | 156 to 168
CC(C)(C)OC(=O)N1CCc2c(n(CCO)c3cc(Cl)cc(Cl)c23)CC1 | 166 to 167
Cn1ccnc1-c1ccccc1Nc1nc(Nc2ccc3c(c2)C(C)(C)CCC(=O)N3)ncc1Cl | 227
Cc1nn(-c2ccc(F)cc2)cc1C(=O)O | 194 to 195
NCC(=O)NCc1cc(=O)c(O)co1 | 216 to 218
CCCCCCOc1nc(-c2ccccc2)sc1-c1ccccc1 | 70 to 72
Cc1c(-c2ccncn2)nc2n(c1=O)CCCN2 | 206 to 207
CC1OC(O)CC(NC(=O)C(F)(F)F)C1(C)O (stereo not given) | 110 to 111
[N-]=[N+]=NC1CC(n2cnc3c(N4CCC4)nc(N)nc32)OC1CO (stereo not given) | 141 to 143
CN(C)c1cc2c(cc1O)CCC1C2CCC2(C)C(=O)CCC12 (stereo not given) | 160 to 161
O=C(O)CCCC(O)c1ccc(Cl)cc1 (stereo not given) | 85 to 87
Cc1cccc(/C=C/c2nc(COc3ccc(CCCCc4c[nH]c(CC(O)CO)n4)cc3)co2)c1 (stereo not given) | 102 to 104
CCOC(=O)c1cc2c(F)ccc(Cl)c2s1 | 63 to 64
CC(C)(C)c1cc(C=Nn2ccnc2)cc(C(C)(C)C)c1O | 171 to 174
COc1ccc(NC(N)=S)c(N2CCOCC2)c1 | 175
Cn1c(COc2ccc(CC3SC(=O)NC3=O)cc2)nc2ccc(Oc3ccc(NC(=O)c4ccccc4)cc3)cc21 (stereo not given) | 200 to 204
Cc1oc(-c2ccccc2)nc1COc1cccc(CCCC2SC(=O)NC2=O)c1 (stereo not given) | 123 to 124

SMILES | melting point [°C]
CC1(C)C=C(C(=O)NCCC#N)c2cc(C(F)(F)C(F)(F)F)ccc2O1 | 163 to 164
OC(CCC(O)(C(F)(F)F)C(F)(F)F)(C(F)(F)F)C(F)(F)F | 96 to 98
CCN(CC)CC1CCCCN1CC(=O)N1c2nc(C)cc(C)c2NC(=O)c2cccc(C)c21 (stereo not given) | 213 to 215
CCOC(=O)CCCCCOc1ccc(-c2nc(=O)c3ccccc3s2)cn1 | 73.6 to 73.9
O=C(Nc1cccc2c(=O)cc(-c3nnnn3O)oc12)c1ccc(OCCCCc2ccccc2)cc1 | 238 to 240
Cc1cc(Nc2ccnc(Nc3ccc(S(=O)(=O)N4CCC(C(O)Cc5ncccc5C)CC4)cc3)n2)ccc1F (stereo not given) | 103 to 104
CCn1nc(-c2ccccc2)c(C(C)=O)c(N)c1=O | 151 to 153
CC1=Nc2cc3c(cc2C1(C)C)N=C(C)C3(C)C | 190 to 195
Nc1nc(O)c2cc(CCc3ccc(C(=O)N[C@@H](CCC(=O)O)C(=O)O)cc3)cnc2n1 | > 200
CN(C)c1ccc(NS(=O)(=O)c2cccc(Br)c2)cc1 | 187 to 189
N#Cc1ccc(OCc2ccc(C=Cc3ccncc3)cc2)cc1 | 149 to 150
OC(Cc1ncc[nH]1)(Cn1cncn1)c1ccc(Cl)cc1Cl (stereo not given) | 168 to 170
Cc1c(-c2ccc(O)cc2)n(Cc2ccc(OCCN3CCCCCCC3)cc2)c2ccc(O)cc12 | 98 to 102
O=CC(=Cc1ccccc1Br)C(C=O)=Cc1ccccc1Br | 194 to 195
OCCCCCCCCCCCOc1ccccc1 | 56 to 58
CCCCN1CCN(CCNC(=O)c2nn(C(C)C)c3ccccc23)CC1 | 82 to 84
CCOC(=O)NN=C(c1cccnc1)C1COCOC1 | 132
Cc1ccc(C[C@@H](C(=O)O)[C@@H](O)c2ccc(F)cc2)cc1OC(F)(F)C(F)F (racemic) | 102 to 103
NS(=O)(=O)CC(=O)c1ccc(Cl)cc1Cl | 136 to 139
CCCCOC(=O)N(C)S(=O)(=O)c1cc([N+](=O)[O-])c(N(CCC)CCC)c([N+](=O)[O-])c1 | 99 to 101
COC(=O)c1ccc(-c2nc(-c3ccccc3)co2)cc1 | 175 to 176
CN(C)c1ccc([N+](=O)[O-])c(C(=O)O)c1 | 185 to 187
O=C1CCCC(c2ccc(F)cc2)CN1 (stereo not given) | 158 to 160
N#Cc1cc(C(=O)c2ccccc2)ccc1[N+](=O)[O-] | 117 to 119
Cc1nc(-c2ccccc2)nc(-c2ccc(O)c(N)c2)c1C(=O)N1CCN(C)CC1 | 129 to 131

SMILES | melting point [°C]
O=c1ccc(=O)c2c(=O)c3ccccc3c(=O)c1=2 | 211 to 213
C[C@@H](Cc1ccc(OCC(=O)O)cc1)NS(=O)(=O)c1ccccc1 | 89 to 91
CCCOc1ccc2[nH]c(C(=O)O)cc2c1 | 155
CCCc1c(O)c(O)c(C(=O)O)c2cc(Cc3ccccc3)c(C)cc12 | 183 to 184
c1csc(-c2n[nH]c3c2Cc2cc(CN4CCOCC4)ccc2-3)c1 | 178 to 179
O=C=Nc1c(Cl)c(Cl)cc(Cl)c1Cl | 62.5 to 63.5
FC(F)(F)c1cc(Cl)c(-n2cc(I)c(C(F)(F)F)n2)c(Cl)c1 | 109 to 112
CCc1nc(N)nc(O)c1I | 199 to 200
Cc1ccc(N2C(=O)C(O)=C(C(=O)c3ccc(C(C)C)cc3)C2c2ccc(N3CCOCC3)cc2)nn1 (stereo not given) | 293 to 294
CCc1c(C)c(NC(=O)NC(C)(C)C)c(C)c2c1OCC2c1ccc(C(C)C)cc1 (stereo not given) | 207 to 209
O=S1(=O)c2sccc2C=C(CO)N1CCO | 81 to 83
CN(C)C1N(C)C(=O)NC(=O)N1c1cc(OCc2ccccc2)c(Cl)cc1F (stereo not given) | 193 to 194
COc1ccc(Br)c(C(=O)N2CCN(S(=O)(=O)c3ccccc3)CC2)c1 | 180
CCOC(=O)COc1ccc(Cn2c(-c3ccc(OC4CCCC4)cc3)c(C)c3cc(OCc4ccccc4)ccc32)cc1 | 96 to 98
CC1(C)OCCC(=O)c2ccccc2NC1=O | 146 to 148
CC1(CN2CCC(n3c(=O)[nH]c4ccccc43)CC2)OCc2ccccc2-n2cccc21 (stereo not given) | 199 to 201
CCCC(=O)c1c[nH]c2c(C(=O)OC)cccc2c1=O | 151 to 153
CSC(Cc1ccc2oc(Cc3nc(-c4cccc(C)c4)oc3C)cc2c1)C(=O)O (stereo not given) | 125 to 127
O=[N+]([O-])C(c1ccccc1)(c1ccccc1)[N+](=O)[O-] | 158
CCOc1ccc(Cc2cc([C@@H]3O[C@H](SC)[C@@H](O)[C@H](O)[C@H]3O)ccc2Cl)cc1 | 123
CN1C(=O)CC(=O)N(c2ccccc2)C1=O | 124
CCOC(=O)CNC(=O)c1ccc(O)cc1 | 205 to 209
O=C(CN1CCOCC1)Nc1cccc2nc(N[C@@H]3CCc4ccccc43)ccc12 | 179
Cc1nc(C(O)(Cn2cncn2)c2ccc(F)cc2)cs1 (stereo not given) | 120
CCCCCCC(C)(C)c1cc(OC)c(C2=C[C@@H]3CC[C@@]2(C)C3(C)C)c(OC)c1 | 35 to 37
